Where “and” joins values, the source holds several entries; their conditions need not be identical. Equal entries are not always repeated. Structures can show the parent of a compound that is named as a salt.

`O=C(OC)\C1=C(\N/C(=C(/C(=O)OC)C1c2ccccc2[N+]([O-])=O)C)C` [nifedipine] gave a melting point of 173 °C. `COc1ccccc1N1CCN(CCCC(=O)c2ccc(F)cc2)CC1` [4-[4-(o-Methoxyphenyl)-1-piperazinyl]-p-fluorobutyrophenone] displayed a melting point of 68 °C. Consider `O=C(O)CC(O)(CC(=O)O)C(=O)O` [citric acid, anhydrous], for which the melting point stood at 154 °C. The same measure for `O=c1ccc2cc([N+](=O)[O-])ccc2o1` [6-nitrocoumarin]: 188 °C. Compound `O=C(O)c1ccc(-c2cccc([N+](=O)[O-])c2)cc1` [3'-nitrobiphenyl-4-carboxylic acid] returned a melting point of 314 °C. Compound `CCOC(=O)c1ccccc1C#N` [ethyl_o-cyanobenzoate] came in with a melting point of 68 °C. The same measure for `c1cc(ccc1NC(=O)/C=CC(=O)O)F` [N-(4-fluorophenyl)maleamic acid]: 208 °C; for `CCSCC` [diethyl sulfide]: -104 °C. The same measure for `CCBr` [bromoethane]: -119 °C; for `OCCCCCCCCCCc1ccccc1` [10-phenyl-1-decanol]: 36 °C. The same measure for `NCc1ccccc1` [benzylamine]: 10 °C. Consider `O=[N+]([O-])/C=C/c1ccc([N+](=O)[O-])cc1` [beta,4-dinitrostyrene], for which the melting point worked out at 204 °C. The same measure for `N#CCc1ccccc1[N+](=O)[O-]` [(2-Nitrophenyl)acetonitrile]: 84 °C; for `O=C(O)c1ccc(Cl)c(Cl)c1` [3,4-dichlorobenzoic_acid]: 208 °C; for `Cc1cccc(Nc2ccncc2S(=O)(=O)NC(=O)NC(C)C)c1` [Torasemide]: 164 °C. The result for `FC(F)Cl` [Chloro(difluoro)methane] reads -146 °C; that for `O=C(CCCN1CCC(O)(c2ccc(Cl)cc2)CC1)c1ccc(F)cc1` [haloperidol], 152 °C.

`CCC(C)(C)C(=O)O[C@H]1C[C@@H](C)C=C2C=C[C@H](C)[C@H](CC[C@@H]3C[C@@H](O)CC(=O)O3)[C@H]21` [simvastatin] registered a melting point of 136 °C. The same measure for `CCOCC` [Diethyl ether]: -116 °C. `O=Cc1cnc2ccccc2c1` [quinoline-3-carboxaldehyde] displayed a melting point of 70 °C. The same measure for `NC(=S)Nc1cccc2ccccc12` [N-(1-naphthyl)thiourea]: 188 °C; for `O=C(CC(=O)C(F)(F)F)c1ccco1` [4,4,4-trifluoro-1-(2-furyl)-1,3-butanedione]: 21 °C. Compound `CC(=O)c1ccccc1C#N` [o-acetyl_benzonitrile] came in with a melting point of 48 °C. The same measure for `COc1cc(Cl)cc(Cl)c1` [3,5-dichloroanisole]: 41 °C; for `ClCCOCCCl` [1-Chloro-2-(2-chloroethoxy)ethane]: -47 °C. Take `CCCCCCC(=O)O` [heptanoic_acid]: the melting point was -6 °C. As to `Clc1cc(Cl)c(Cl)cc1Cl` [1,2,4,5-tetrachlorobenzene], the melting point amounted to 140 °C.

For `Oc1ccc(Cl)cc1` [4-Chlorophenol], the melting point turned out to be 44 °C. The same measure for `Clc1ccc(-c2nc3c4ccccc4ccn3n2)cc1` [lotrifen]: 238 °C. In turn, `CC(CN1CCOCC1)C(C(=O)N1CCCC1)(c1ccccc1)c1ccccc1` (centres undefined) [dextromoramide] yielded a melting point of 180 °C.

The compound `CC[SiH](CC)CC` [triethylsilane] registered a melting point of -157 °C. The result for `CC(C)C(C)C(C)C` [2,3,4-trimethylpentane] reads -109 °C; that for `Nc1nc(=O)c2ncn(COCCO)c2[nH]1` [Aciclovir], 257 °C; that for `CCNc1nc(Cl)nc(NCC)n1` [2-chloro-4,6-bis(ethylamino)-1,3,5-triazine], 228 °C. The result for `N#CC(CCc1ccc(Cl)cc1)(Cn1cncn1)c1ccccc1` (centres undefined) [fenbuconazole] reads 125 °C. `CN(C)c1ccc(C(C(=O)NC(C)(C)C)N(C)C(=O)CCCc2ccc3ccc4cccc5ccc2c3c45)cc1` (centres undefined) [Ugi product 171K (UC)] returned a melting point of 194 °C. Regarding `Nc1c(Br)cc(Br)c(Cl)c1Cl` [4,6-dibromo-2,3-dichloroaniline], the melting point is 97 °C. `CC(C)OC=O` [isopropyl formate] came in with a melting point of -93 °C. The result for `BrCCCCCCBr` [1,6-dibromohexane] reads -2 °C; that for `CC(N)CCc1ccccc1` (centres undefined) [3-amino-1-phenylbutane], -50 °C.

Consider `CCCCCCCCCCc1ccc(N(NC(=O)OC(C)(C)C)C(=O)OC(C)(C)C)cc1CCCCCCCCCC` [1,2-Bis(tert-butoxycarbonyl)-1-(3,4-didecylphenyl)hydrazine], for which the melting point amounted to 37.5 °C. Take `CCOC(=O)c1csc(C)n1` [ethyl 2-methyl-1,3-thiazole-4-carboxylate]: the melting point turned out to be 57 °C.

In the case of `Cc1cccc2c1-c1nc3ccccc3nc1-2` [1-methylbenzo[3,4]cyclobuta[1,2-b]quinoxaline], the melting point stood at 135 °C. `CC(C)(C)NCC(O)COc1cccc2c1CC(O)C(O)C2` (centres undefined) [nadolol] displayed a melting point of 124 °C. On to `O=[N+]([O-])c1ccc(OCC(O)CO)cc1` (centres undefined) [1-(4-nitrophenyl)glycerol], for which the melting point was 96 °C. Compound `Nc1ccccc1N1CCOCC1` [2-(4-morpholinyl)aniline] gave a melting point of 97 °C. Take `ON=C1CCCCC1` [cyclohexanone oxime]: the melting point turned out to be 89 °C.

In the case of `COc1ccccc1N` [o-anisidine], the melting point amounted to 6 °C. Consider `CC(C)CCCC(C)C1CCC2C3CC=C4CC(O)CCC4(C)C3CCC12C` (centres undefined) [cholest-5-en-3-ol], for which the melting point was 148 °C. `O=C(O)c1cccc(O)c1` [3-hydroxybenzoic_acid] yielded a melting point of 203 °C. The same measure for `O=C1OC(c2ccccc2)=NC1=Cc1ccco1` [2-Oxazolin-5-one, 4-furfurylidene-2-phenyl-]: 159 °C; for `O=C(/C=C/c1ccccc1)n1ccnc1` [1-(trans-cinnamoyl)imidazole]: 130 °C.

`COC(=O)c1ccc(C)cc1` [methyl_4-methylbenzoate]: the melting point is 37 °C. As to `C=Cc1cccc([N+](=O)[O-])c1` [3-nitrostyrene], the melting point was -5 °C.

In turn, `CCCCC#N` [butyl_cyanide] registered a melting point of -96 °C.

In turn, `CCCCCC=O` [hexanal] displayed a melting point of -56 °C. On to `O=C(O)c1ccccc1Nc1ccccc1` [N-phenylanthranilic acid], for which the melting point was determined as 187 °C. The result for `O=C(O)c1ccccc1O` [salicylic acid] reads 158 °C and 157 °C; that for `CCCCC(C)=O` [2-hexanone], -56 °C. For the compound `NC1CCc2ccccc21` (centres undefined) [1-aminoindane], the melting point was 2 °C.

Compound `OB(O)c1ccc(F)cc1F` [2,4-difluorobenzeneboronic acid] came in with a melting point of 249 °C. The same measure for `C[Si](C)(C)O[Si](C)(C)C` [hexamethyldisiloxane]: -67 °C; for `CCC1(c2ccccc2)C(=O)NC(=O)N(C)C1=O` (centres undefined) [mephobarbital]: 176 °C; for `CS(=O)(=O)c1ccccc1` [methyl phenyl sulfone]: 87 °C. The result for `NCc1ccc2c(Br)cccc2c1` [1-(5-bromonaphthalen-2-yl)methanamine] reads 112 °C; that for `CC(C)(C)OO` [tert-Butyl hydroperoxide], -3 °C; that for `O=C(N[C@H](CO)Cc1ccccc1)OCc1ccccc1` [N-benzyloxycarbonyl-l-phenylalaninol], 94 °C. The result for `O=[N+]([O-])c1ccc(C(F)(F)F)cc1` [4-nitrobenzotrifluoride] reads 40 °C; that for `COc1cc(O)c2c(=O)c(OC3OC(CO)C(O)C(O)C3OC3OC(C)C(O)C(O)C3O)c(-c3ccc(O)c(O)c3)oc2c1` (centres undefined), 187 °C.

On to `Br` [Hydrogen bromide], for which the melting point is -87 °C and -86 °C. As to `NC(=O)NO` [Hydroxyurea], the melting point was determined as 144 °C. Take `Cc1cc(/C=C2\S/C(=N\c3ccccc3)N(CC#N)C2=O)c(C)n1-c1ccc(C(F)(F)F)cc1` [OSM-S-43]: the melting point was 73 °C. The same measure for `Cn1c(=O)c2[nH]cnc2n(C)c1=O` [theophylline]: 272 °C and 274 °C; for `NC(c1ccccc1)(c1ccccc1)c1ccccc1` [tritylamine]: 102 °C.

In turn, `C=CC(=O)O` [Acrylic Acid] showed a melting point of 13.5 °C.

`CC(=O)NS(=O)(=O)c1ccc(N)cc1` [sulfacetamide] [listing 1 of 2 here]: the melting point was 183 °C. As for `O=C1/C(=C\c2ccco2)SC(=S)N1CN1CCCCC1`, the melting point is 121 °C. With `O=C(O)c1ccccc1Br` [2-bromobenzoic acid], the melting point turned out to be 148 °C. The result for `CC(=O)NS(=O)(=O)c1ccc(N)cc1` [sulfacetamide] [listing 2 of 2 here] reads 182 °C; that for `c1ccc(P(c2ccccc2)c2ccccc2)cc1` [Triphenylphosphine], 80.5 °C. The same measure for `Cc1cccc(C(C)(C)C)c1` [1-methyl-3-tert-butylbenzene]: -41 °C. The same measure for `CC(C)(C)OC(=O)NCC(=O)N(Cc1ccco1)C(C(=O)NCc1ccccc1)c1ccccc1` (centres undefined) [Ugi product 108C (UC)]: 147 °C; for `CON(/C=C1\C(=O)C2(C)CCC1C2(C)C)c1ccccc1` (centres undefined): 76 °C.

Take `ClCC(Cl)Cl` [1,1,2-Trichloroethane]: the melting point is -35 °C.

Consider `NC1CCCCC1` [cyclohexylamine], for which the melting point is -18 °C. The same measure for `O=C(O)Cc1ccc(OC(F)(F)F)cc1` [4-(trifluoromethoxy)phenylacetic acid]: 87 °C; for `C[SiH](C)O[Si](C)(C)O[SiH](C)C` [1,1,3,3,5,5-hexamethyltrisiloxane]: -67 °C; for `c1ccc(OCCOc2ccccc2)cc1` [1,2-diphenoxyethane]: 95 °C. The same measure for `C/C=C\C(C)C` [4-methyl-cis-2-pentene]: -134 °C.

What is called melting point is the temperature of the solid-liquid transition.

The values are drawn from the Bradley open melting point set (2014).
